# From patent publication US20230017266A1, “Cyclooxygenase-2 Inhibition for the Treatment of SAA-high Asthma” (THE USA, AS REPRESENTED BY THE SECRETARY, DEPT. OF HEALTH …, priority 2019, published 2023)
# Assays:
# Assay type in all cases: cell-based, human
# Conditions in all cases: diclofenac 1 mM, 24 h
# CD14^+ monocytes [1] = experiment: HDL+SAA1-induced cytokine secretion by ex vivo CD14+ monocytes (ELISA)
# Procedure: Isolation of Peripheral Blood Monocytes. Peripheral blood monocytes were isolated using a two-step process. Peripheral blood was diluted with PBS at a 1:1 ratio, slowly overlaid onto 30 ml of Lymphoprep™ (catalog #07811, StemCell Technologies, Vancouver Canada) in a 50 ml conical tube, and centrifuged at 400×g for 25 min without braking. The peripheral blood mononuclear cell (PBMC) layer was carefully transferred to another 50 ml conical tube, washed with PBS, followed by two washes with FACS buffer (0.5 mM EDTA, 1% BSA, and 1% mouse serum in PBS). Monocytes subsets were identified and sorted by flow cytometry using the following antibodies: PE mouse anti-human CD45 clone HI30 (catalog #555483), BV421 mouse anti-human CD14 clone MφP9 (catalog #563743), and FITC mouse anti-human CD16 clone B73.1 (catalog #561308), and a FACS ARIA Fusion sorter equipped with 355, 407, 488, 532 and 640 nm LASER lines using FACS DIVA 8.0 software (all from BD Biosciences, San Jose, Calif.). The gating strategy identified a population of debris-free, single, live, ^SSCmoderate/high, CD45^+ cells from which CD14^+/CD16^− (classical), CD14^+/CD16^+ (intermediate), CD14^dim/CD16^+ (non-classical), and CD14^+ (classical and intermediate) cells were sorted and utilized for experiments, as indicated (Supplemental FIG. 4).
# HDL+SAA1 Stimulation of Peripheral Blood Monocytes Subsets. […] As previously described, normal HDL was isolated from plasma obtained from healthy subjects by sequential KBr differential gradient ultracentrifugation at 330,000 g and extensive dialysis with 50 mM HEPES, 50 mM NaCL, 5 mM MgCl2 and 2 mM CaCl2, pH 7.0, at 4° C. Normal HDL was complexed with recombinant human serum amyloid A-1 at a 2:1 ratio by mixing and incubated at RT overnight to generate HDL+SAA1, which was filtered using a 100-kDa exclusion filter (Amicon Ultra Centrifuge Filters, Millipore, Darmstadt, Germany) to remove any uncomplexed SAA1. Normal HDL was also complexed with the amount of lipopolysaccharide (catalog # L4391, E. coli 0111:B4, y-irradiated, MilliporeSigma, St. Louis, Mo.) present in recombinant human SAA1. Additionally, classical CD14^+ monocytes were treated with the P2X7R antagonist, A438079, the IKK inhibitor, BAY-11-7082, the IKKβ (IKK-2) inhibitor, TPCA-1, or the selective COX-2 inhibitor, celexocib, all from MilliporeSigma(St. Louis, Mo.). Cells were also treated with the FPR2 antagonist, WRW4, or diclofenac from Tocris (Minneapolis, Minn.). The amount of IL-1β, IL-6, TNF-α and IL-10 secreted into cell culture supernatants was quantified using human DuoSet ELISA kits (R&D Systems) and data were acquired using a SpectraMax M2 spectrophotometer (Molecular Devices, San Jose, Calif.). Western blotting, as previously described^43, was performed using antibodies directed against COX-1 (catalog #160110) and COX-2 (catalog #160112), both from Cayman Chemical (Ann Arbor, Mich.). Equivalency of protein loading was established using an antibody directed against GAPDH (catalog #MAB5718) from R&D Systems (Minneapolis, Minn.). Western blots images were captured using an iBright FL1000 Western Blot Imaging System (ThermoFisher Scientific, Waltham, Mass.) and quantified using NIH ImageJ software (imagej.nih.gov). […]
# CD14^+ monocytes [2] = experiment: PGE2 and TXB2 secreted by CD14+ monocytes cultured with HDL+SAA1
# Source text: FIG. 4 illustrates that HDL enriched with serum amyloid A (HDL+SAA1) induces cytokine secretion from CD14+ monocytes via a P2X7R/NF-κB/COX-2-dependent pathway. a, Volcano plot showing differentially expressed mRNA transcripts from classical CD14+/CD16− monocytes from asthmatics (n=10) that were stimulated ex vivo with or without HDL enriched with recombinant human SAA1 (HDL+SAA1). Additional experiments utilized ex vivo cultures of CD14^+ monocytes isolated by flow cytometry from healthy subjects to characterize the HDL+SAA1-mediated P2X7R/NF-κB/COX-2-dependent pathway, except where indicated. b, PTGS2 mRNA levels were quantified by qRT-PCR in cells stimulated with normal HDL or HDL+SAA1 and presented as RQ (relative quantification). n=7 subjects, pairwise comparisons of all groups vs. media, repeated measures one-way ANOVA with Dunnett's multiple comparisons test. c, Western blot showing COX-1 and COX-2 protein in cells stimulated with normal HDL or HDL+SAA1. GAPDH is shown as a control for equivalency of protein loading. The Western blot shown is representative of 3 independent experiments using cells from different subjects. […]
# CD14^+ monocytes [3] = experiment: HDL+SAA1-induced cytokine secretion by ex vivo CD14+ monocytes (ELISA); remark: listed apart in the source
compound,measurement,setting,value
"O=C(O)Cc1ccccc1Nc1c(Cl)cccc1Cl [diclofenac, 2-[(2,6-dichlorophenyl)amino] benzeneacetic acid]",HDL+SAA1-mediated secretion of IL-6,CD14^+ monocytes [1],significantly inhibited
same,HDL+SAA1-mediated secretion of IL-10,CD14^+ monocytes [1],significantly inhibited
same,HDL+SAA1-mediated secretion of TNF-α,CD14^+ monocytes [1],significantly inhibited
same,HDL+SAA1-induced increase in prostaglandin E2,CD14^+ monocytes [2],suppressed
same,HDL+SAA1-induced increase in thromboxane B2,CD14^+ monocytes [2],suppressed
same,HDL+SAA1-mediated secretion of IL-13,CD14^+ monocytes [3],significantly inhibited
